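Following 48 hours of exposure in 96-well plates, responses at five concentrations were used to interpolate endpoints linearly. The concentration for 50% growth inhibition is given as GI50. TGI: concentration producing complete growth inhibition.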
How the values were obtained:
Test in all cases: growth of human tumour cells (NCI), 48 h
[1] = tested on: SNB-19 CNS
[2] = tested on: HS 578T breast
[3] = tested on: UACC-257 melanoma
[4] = tested on: SR leukemia
[5] = tested on: MDA-MB-231 breast
[6] = tested on: SF-268 CNS
[7] = tested on: SW-620 colon
[8] = tested on: A549 NSCLC
[9] = tested on: SNB-75 CNS
[10] = tested on: ACHN renal

COc1cc(-c2n/c(=C\c3c(O)[nH]c4cc(Cl)ccc34)cc3c2=Nc2ccccc2-3)cc(OC)c1OC
GI50 [1]: 3.52 µM | TGI [1]: 15.5 µM | GI50 [2]: 2.51 µM | TGI [2]: 19 µM | GI50 [3]: 4.01 µM | TGI [3]: 18.8 µM | GI50 [4]: 2.38 µM | TGI [4]: 6.35 µM | GI50 [5]: 3.17 µM | TGI [5]: 11.3 µM | GI50 [6]: 2.72 µM | TGI [6]: 10.5 µM | GI50 [7]: 4.07 µM | TGI [7]: 54.9 µM | GI50 [8]: 4.8 µM | TGI [8]: 21.9 µM | GI50 [9]: 5.05 µM | TGI [9]: 25.1 µM | GI50 [10]: 4.49 µM | TGI [10]: 22.2 µM
